# Test results as given in the NIST ThermoML archive (doi:10.1016/j.jct.2012.10.028).
# ± gives the expanded uncertainty stated by the source.
# How the values were obtained:
# [1] = 101.33 kPa, Liquid, Vibrating tube method
# [2] = refractive index (Na D-line) (dimensionless); details: 298.2 K; 101.33 kPa; Liquid; Standard Abbe refractometry
mass density ([1]; 298.2 K) [kg/m3],refractive index [2],mass density ([1]; 293.15 K) [kg/m3],SMILES
830.57 ± 0.31,1.4293 ± 0.0005,,CCCCC(CC)CO (centres undefined) [2-ethyl-1-hexanol]
824.1 ± 0.31,1.427 ± 0.0005,,CCCCCCCCO [octan-1-ol]
943.04 ± 0.32,1.4503 ± 0.0005,,O=C1CCCCC1 [cyclohexanone]
,1.3878 ± 0.0005,866.58 ± 0.31,CC(=O)OCC(C)C [2-methylpropyl ethanoate]
,1.3325 ± 0.0005,,O [water]
